Assay results taken from patent publication US10722467B2, “Remote loading of sparingly water-soluble drugs into liposomes” (ZONEONE PHARMA, INC., priority 2013, dated 2020).

What was measured:
Format in all cases: physicochemical
[1] = Aripiprazole precipitates from various solvents with liposomes, absorbance at 600 nm; conditions: drug initially dissolved in DMSO, 1-4-methylpyrrolidone, diethylenemonoethylether or polyethyleneglycol (MW400); 7.5% solvent; ammonium sulfate liposomes; 65°C 30 min
Experimental: Aripiprazole was dissolved in a range of solvents indicated below at 4 mg/mL. Liposomes composed of HSPC/Chol/PEG-DSPE (3/2/0.15 mol/mol/mol) that were prepared in 250 mM ammonium sulfate were used and diluted to 6 mM in Hepes buffered sucrose 10% (wt/wt) (HBSuc pH 6.5). 0.3 mg of drug was introduced by slow addition of each solvent while vortexing. The final solvent concentration was 7.5% for all samples. As controls, the drug was added from each solvent to the same volume of HBSuc pH 6.5 without the liposomes. The samples were heated at 65° C. for 30 min then cooled on ice.

[2] = Remote loading of aripiprazole into liposomes
Experimental: Liposomes (HSPC/Chol/PEG-DSPE 3/2/0.15 mol/mol/mol) containing 250 mM ammonium sulfate or 250 mM sodium sulfate were diluted in 1 mL of 50 mM citric acid, 10% (wt/wt) sucrose, pH 4.0 to a concentration of 6 mM phospholipid. 0.3 mg of aripiprazole was added from a stock solution of 15 mg/mL in DMSO, so that the final DMSO concentration was 2% (v/v). Fine precipitates were immediately observed after the drug was added to both liposome samples. The samples were heated at 65° C. for 30 min, the cooled on ice. The samples were filtered through a 0.2 um polyethersulfone syringe filter to remove any drug precipitates, followed by purification on a Sephadex G25 column equilibrated with HBS, pH 6.5 to remove any soluble extraliposome drug. The turbid fraction was collected and analyzed for lipid and drug as described above.

[3] = Remote loading of carfilzomib into liposomes (drug/lipid ratio and loading efficiency by HPLC); conditions: for efficiency of loading: 100 g drug/mol HSPC
Experimental: Ammonium sulfate solution was prepared by dissolving ammonium sulfate solid to a final concentration of 250 mM (500 mequivilents of anion/L) no pH adjustment was made to yield a final pH of 5.6. Sodium sulfate solution (250 mM) was prepared by adding 0.35 g sodium sulfate to 10 mL deionized water.
The liposomes were formed by extrusion. Lipids were dissolved in ethanol at a concentration of 500 mM HSPC (591 mg/mL total lipid) at 65° C. and the 9 volumes of the trapping agent solution heated to 65° C. was added to the ethanol/lipid solution also at 65° C. The mixture was vortexed and transferred to a 10 mL thermostatically controlled (65° C.) Lipex Extruder. The liposomes were formed by extruding 10 times through polycarbonate membranes having 0.1 um pores. After extrusion the liposomes were cooled on ice. The transmembrane electrochemical gradient was formed by purification of the liposomes by dialysis in dialysis tubing having a molecular weight cut off of 12,000-14,000. The samples are dialyzed against 5 mM HEPES, 10% sucrose pH 6.5 (stirring at 4° C.) at volume that is 100 fold greater than the sample volume. The dialysate was changed after 2 h then 4 more times after 12 h each. The conductivity of the liposome solution was measured and was indistinguishable from the dialysis medium ˜40 μS/cm.
(§1) The lipid concentration is determined by measuring the cholesterol by HPLC using an Agilent 1100 HPLC with and Agilent Zorbax 5 um, […], Eclipse XDB-C8 column and a mobile phase of A=0.1% TFA, B=0.1% TFA/MeOH with an isocratic elution of 99% B. The flow rate is 1.0 mL/min, column temperature is 50° C., 10 μL injection and detection by absorbance at 205 nm. The retention time of cholesterol is 4.5 min. The liposome size is measured by dynamic light scattering.
Carfilzomib (Selleck Chemicals) was dissolved in DMSO at a concentration of 10 mg/mL. […] The liposomes were diluted with 50 mM citrate, 10% sucrose pH 4.0 to increase the volume to a point where after addition of the drug the final DMSO concentration is 2%. The carfilzomib/DMSO was added to the diluted liposomes, which were mixed at room temperature then transferred to a 65° C. bath and swirled every 30 s for the first 3 min and then swirled every 5 min over a total heating time of 30 min. All samples were very cloudy when the drug was added and all became clear (same as liposomes with no drug added) after 15 min. After heating for 30 min all samples were placed on ice for 15 min. The loaded liposomes were vortexed and 100 μL of sample was kept as the “before column” and the rest transferred to microcentrifuge tubes and spun at 10,000 RPM for 5 min. The supernatants were purified on a Sephadex G25 column collected and analyzed by HPLC. The HPLC analysis of carfilzomib was performed on the same system as described for analysis of cholesterol. The mobile phase consists of A=0.1% TFA, B=0.1% TFA/MeOH with a gradient elution starting at 50% B and increasing to 83% B in 13 min with 7 min equilibration back to 50% B. The flow rate is 1.0 mL/min, column temperature is 30 C, 10 μl injection and detection by absorbance at 205 nm. The retention time of carfilzomib is 12.2 min. The lipid concentration is determined by analysis of the cholesterol by HPLC. […]
Napthelenedisulfonic acid (NDS) was dissolved in water and titrated with diethylamine to a final pH of 8.0 and concentration of 250 mM (500 mequivilents of anion/L). […]
To ensure complete removal of the DMSO added with carfilzomib, the liposomal carfilzomib samples were dialyzed in dialysis tubing having a molecular weight cut off of 12,000-14,000. The samples are dialyzed against 5 mM HEPES, 10% sucrose pH 6.5 (stirring at 4° C.) at volume that is 100 fold greater than the sample volume. The dialysate was changed after 2 h then 2 more times after 12 h each. The carfilzomib liposomes were again analyzed for drug and lipid concentration as described above. […]

[4] = Liposome size by dynamic light scattering; conditions: carfilzomib-loaded liposomes, before lyophilizing
Experimental: as §1
See Example 1, Carfilzomib liposome entrapment by remote loading for details on how the liposomes were made, purified and characterized.

[5] = Reverse gradient-directed drug release from liposomes
Experimental: Liposomes were loaded with carfilzomib as described in Example 1 and were purified into deionized water. The sample was divided into two aliquots. To the first aliquot, concentrated Hepes pH 7.4 and NaCl was added so that the final concentration was 5 mM Hepes, 145 mM NaCl (HBS). To the second aliquot, concentrated ammonium sulfate was added so that the final concentration was 250 mM. No obvious physical changes were initially observed. The samples were then heated at 65° C. for 30 min. The samples were transferred to clean eppendorf tubes and centrifuged for 10,000 rpm for 5 min after which the supernatants and precipitates were separated and tested for carfilzomib content by HPLC assay. Released drug precipitated, liposome encapsulated drug remained in the supernatant. The % carfilzomib released was calculated by […]

[6] = Carfilzomib solubility as a function of DMSO content (optical density at 600 nm); conditions: drug 0.2 mg/mL
Experimental: Carfilzomib was added from a stock 10 mg/mL solution in DMSO to 1 mL of a citric acid/DMSO mixture so that the composition of DMSO was 2%, 25%, 50%, 75% and 100%. The final drug concentration was 0.2 mg/mL. The solutions were prepared and measured for optical density at 600 nm. The optical density at 600 nm is a good measure of how turbid or how much scattering material (such as drug precipitates) are in a solution, generally, the more precipitates the higher the absorbance. From FIG. 8 is apparent that at DMSO concentrations below 50% vol/vol (25° C.) and 25% vol/vol (65° C.) the drug remains in a precipitated form. Only when the concentration of DMSO is increased does it become effectively solubilized at this concentration of 0.2 mg/mL.

[7] = Light scattering at 600 nm during carfilzomib loading
Experimental: Liposomes containing 250 mM ammonium sulfate as trapping agent and 250 mM sodium sulfate as control liposomes which would not remote load drug. The liposomes were prepared and loaded using the procedure described in Example 1 except a disposable polystyrene cuvette was used as the reaction vessel. The scattering of light at 600 nm was measured with a UV/vis spectrophotometer during the loading process.

[8] = 500 mM ammonium sulfate liposomes, highest input ratio of Example 10
[9] = [(NH4)2SO4] 250 mM, input drug/HSPC 167.3 g/mol

## O=C1CCc2ccc(OCCCCN3CCN(c4cccc(Cl)c4Cl)CC3)cc2N1 [aripiprazole]
[1]
  clarification of drug precipitate with liposomes (absorbance at 600 nm): clarified the drug precipitate
[2]; drug introduced as SBCD complex (from the pharmaceutical product Abilify), same concentration and loading conditions
  loading efficiency: 68%
[2]; loading into ammonium sulfate vs sodium sulfate liposomes
  Fold Increase NH4SO4/NaSO4: 49.3 fold

## CC(C)C[C@H](NC(=O)[C@H](CCc1ccccc1)NC(=O)CN1CCOCC1)C(=O)N[C@@H](Cc1ccccc1)C(=O)N[C@@H](CC(C)C)C(=O)[C@@]1(C)CO1 [carfilzomib]
[3]; [8]
  drug/carrier total lipid weight ratio (highest reached): 0.4
  final drug payload (highest reached): 469±4.9 g drug/mol HSPC
[3]; 500 mM ammonium sulfate, input 639 g drug/mol HSPC
  final drug to lipid ratio: 440±10.2 g drug/mol HSPC
[3]; DMSO absent
  remote loading: practically no loading
[3]; [(NH4)2SO4] 250 mM, input drug/HSPC 91.8 g/mol
  Drug payload/carrier weight ratio: 0.07 g drug/g total lipid
[3]; [9]
  Drug payload/carrier weight ratio: 0.11 g drug/g total lipid
  efficiency: 76.0%
[3]; [(NH4)2SO4] 250 mM, input drug/HSPC 251.8 g/mol
  Drug payload/carrier weight ratio: 0.15 g drug/g total lipid
[3]; [(NH4)2SO4] 250 mM, input drug/HSPC 338.1 g/mol
  Drug payload/carrier weight ratio: 0.18 g drug/g total lipid
[3]; [(NH4)2SO4] 250 mM, input drug/HSPC 432.8 g/mol
  Drug payload/carrier weight ratio: 0.20 g drug/g total lipid
[3]; [(NH4)2SO4] 500 mM, input drug/HSPC 450.6 g/mol
  Drug payload/carrier weight ratio: 0.29 g drug/g total lipid
[3]; [(NH4)2SO4] 500 mM, input drug/HSPC 545.9 g/mol
  Drug payload/carrier weight ratio: 0.32 g drug/g total lipid
[3]; [(NH4)2SO4] 500 mM, input drug/HSPC 639.2 g/mol
  Drug payload/carrier weight ratio: 0.37 g drug/g total lipid
[3]; [(NH4)2SO4] 500 mM, input drug/HSPC 758.7 g/mol
  Drug payload/carrier weight ratio: 0.40 g drug/g total lipid
[3]; drug from 10 mg/mL DMSO solution added in 5 increments over 1 min while vortexing
  efficiency of loading: 96.3%±1.09%
[3]; drug from 10 mg/mL DMSO solution added quickly, 2% DMSO
  efficiency of loading: 97.0%±2.38%
[3]; drug input below/at 100 g drug/mol HSPC
  loading capacity, remote loaded (ammonium sulfate) vs sodium sulfate liposomes: > 3 fold
[3]; liposomes added immediately, after 1 h or 12 h delay
  effect of time between precipitate formation and loading on loading efficiency: does not have a significant impact
[4]; trapping agent (NH4)2SO4, drug added quickly
  PDI: 0.062
[4]; trapping agent (NH4)2SO4, drug added slowly
  PDI: 0.035
[4]; trapping agent mellitic acid
  PDI: 0.08
[4]; trapping agent napthelenedisulfonic acid
  PDI: 0.039
[5]; after loading and release from liposomes, compared with starting material
  degradation of released drug by HPLC chromatogram: no degradation of carfilzomib had taken place
[5]; ammonium sulfate vs Hepes buffered saline
  drug released with reverse gradient vs control with no reverse gradient: 6.5 fold
[6]; 25°C
  DMSO concentration below which the drug remains in a precipitated form: below 50 % vol/vol
[6]; 65°C
  DMSO concentration below which the drug remains in a precipitated form: < 25 % vol/vol
[6]; 65°C, citric acid/DMSO mixture
  DMSO required to completely dissolve the drug: > 25 % vol/vol
[7]; 250 mM ammonium sulfate liposomes, light scattering at 600 nm during loading
  time to clarification of the solution: ≤ 15 min
[7]; 250 mM sodium sulfate control liposomes, light scattering at 600 nm
  clarification of the precipitate during loading: do not show any clarification of the precipitate
